Among the test systems are HL-60(TB) leukemia; SK-MEL-28 melanoma; HCT-15 colon; T-47D breast; NCI/ADR-RES ovarian; UO-31 renal; NCI-H522 lung; LOX IMVI melanoma; MCF7 breast; A498 renal.
Assay in all cases: inhibition of tumour cell growth, NCI panel, 48 h

For 14 compounds, TGI results are on record in PubChem BioAssay (NCI).

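Interpolation was linear, between the two tested concentrations surrounding the appropriate level; five concentrations were tested over 48 hours in 96-well plates. At the TGI there is no net growth.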 Some results are limits rather than exact numbers.

Turning to `CC(C)Oc1cccc(N2C(=NCc3c[nH]c4ccccc34)Nc3ccncc3S2(=O)=O)c1`, the TGI with HL-60(TB) leukemia is greater than 100 µM; with SK-MEL-28 melanoma, greater than 100 µM; in the experiment with HCT-15 colon it was greater than 100 µM; with T-47D breast, 85.2 µM; in the experiment on NCI/ADR-RES ovarian it was 97.5 µM; with UO-31 renal, greater than 100 µM. Also, the TGI was 87.2 µM in the experiment on NCI-H522 lung, greater than 100 µM with LOX IMVI melanoma, greater than 100 µM in the experiment with MCF7 breast and greater than 100 µM in the experiment with A498 renal.

On to `O=C(CN1C(=O)CC(c2ccccc2)(c2ccccc2)C1=O)N1CCN(CCO)CC1`, for which the TGI in the experiment with SK-MEL-28 melanoma, in the experiment with HCT-15 colon, in the experiment on T-47D breast, in the experiment with NCI/ADR-RES ovarian, in the experiment on UO-31 renal and in the experiment on NCI-H522 lung was greater than 100 µM in each case. The TGI in the experiment with LOX IMVI melanoma, in the experiment with MCF7 breast and with A498 renal was greater than 100 µM each time.

Turning to `COc1cc2c(cc1OCCCN1C(=O)c3cccc4cccc(c34)C1=O)N=C[C@@H]1CCCN1C2=O`, the TGI in the experiment on SK-MEL-28 melanoma is greater than 100 µM; with HCT-15 colon, greater than 77.9 µM; in the experiment on T-47D breast, greater than 100 µM; in the experiment on NCI/ADR-RES ovarian, greater than 100 µM; in the experiment with UO-31 renal, greater than 71 µM; in the experiment on NCI-H522 lung it was 27.9 µM. Further, the TGI with LOX IMVI melanoma was greater than 100 µM; with MCF7 breast, greater than 56.7 µM; with A498 renal, greater than 100 µM.

For the compound `C=C(C)[C@H]1C2=CC(C(=O)OC)=C(C[C@H](C(=C)C)[C@@H](O)[C@@H](O)C3=C[C@H]1OC3=O)O2`, the TGI in the experiment with HL-60(TB) leukemia is greater than 100 µM; in the experiment with HCT-15 colon, greater than 100 µM; in the experiment on T-47D breast, greater than 100 µM; with NCI/ADR-RES ovarian, greater than 100 µM; with UO-31 renal, 85.6 µM; in the experiment with NCI-H522 lung, greater than 100 µM. Further, the TGI in the experiment with LOX IMVI melanoma, with MCF7 breast and in the experiment with A498 renal was greater than 100 µM throughout.

For the compound `N#Cc1sc2c(c1OC(=O)c1ccc(C(F)(F)F)cc1)c(=O)n(-c1ccccc1)c(=S)n2-c1ccccc1`, the TGI in the experiment with HL-60(TB) leukemia was 46.1 µM; in the experiment with SK-MEL-28 melanoma, greater than 100 µM; in the experiment with HCT-15 colon it was 80.7 µM; with T-47D breast, greater than 100 µM; in the experiment with NCI/ADR-RES ovarian, greater than 100 µM; in the experiment on NCI-H522 lung it was 3.51 µM. In addition, the TGI in the experiment on LOX IMVI melanoma was 59.9 µM; in the experiment with MCF7 breast, greater than 100 µM; with A498 renal, 90.2 µM.

`CN1CCN(Cc2cc3c(nn2)-c2ccccc2C3=O)CC1`: the TGI is 72.5 µM in the experiment on HL-60(TB) leukemia; greater than 100 µM in the experiment on HCT-15 colon; greater than 100 µM in the experiment on T-47D breast; greater than 100 µM in the experiment with NCI/ADR-RES ovarian; greater than 100 µM in the experiment with UO-31 renal; 64.3 µM with NCI-H522 lung. Besides, the TGI with MCF7 breast is greater than 100 µM.

On to `COc1cc(Nc2ccc3c(c2)CCC3)nc(OC)n1`, for which the TGI in the experiment with HL-60(TB) leukemia is greater than 100 µM; with SK-MEL-28 melanoma, greater than 100 µM; in the experiment with HCT-15 colon it was greater than 100 µM; in the experiment on T-47D breast it was greater than 100 µM; in the experiment on NCI/ADR-RES ovarian, 65.5 µM; with NCI-H522 lung, 84.5 µM. Moreover, the TGI in the experiment with LOX IMVI melanoma, in the experiment on MCF7 breast and in the experiment with A498 renal was greater than 100 µM each time.

With `CO/N=C(/C(=O)OC)c1ccccc1COc1ccccc1C(F)(F)F`, the TGI in the experiment on HL-60(TB) leukemia is 51.3 µM; in the experiment on SK-MEL-28 melanoma, greater than 100 µM; in the experiment with HCT-15 colon, greater than 100 µM; in the experiment on T-47D breast it was greater than 100 µM; with NCI/ADR-RES ovarian it was greater than 100 µM; with UO-31 renal, greater than 100 µM. Also, the TGI in the experiment with NCI-H522 lung was 56.3 µM; in the experiment on MCF7 breast it was greater than 100 µM; with A498 renal, greater than 100 µM.

As to `O=C(CNc1ccc(Cl)cc1Cl)Nn1c(-c2ccccc2)nc2ccccc2c1=O`, the TGI in the experiment with HL-60(TB) leukemia is greater than 100 µM; in the experiment on SK-MEL-28 melanoma, 43.7 µM; in the experiment on HCT-15 colon, 33.5 µM; in the experiment with T-47D breast it was 38.5 µM; with NCI/ADR-RES ovarian, 52.9 µM; with UO-31 renal, 48.4 µM. Further, the values for the TGI in the experiment with NCI-H522 lung, in the experiment on LOX IMVI melanoma and in the experiment with MCF7 breast were 25.7 µM, 24.1 µM and 27.4 µM, respectively.

Consider `COc1cccc2c1OC(c1cccc3ccccc13)C([N+](=O)[O-])=C2` (stereo not drawn), for which the TGI in the experiment with HL-60(TB) leukemia is greater than 100 µM; in the experiment with SK-MEL-28 melanoma it was 2.87 µM; in the experiment on HCT-15 colon, 3.8 µM; in the experiment on T-47D breast, 5.69 µM; with NCI/ADR-RES ovarian it was 7.29 µM; with UO-31 renal it was 2.75 µM. Moreover, the TGI in the experiment on NCI-H522 lung was 3.21 µM; in the experiment with MCF7 breast it was 2.65 µM.

Take `CC(C(=O)COCc1ccccc1)P1(=O)OC(C)(C)CN1C(C)(C)C` (stereo not drawn): the TGI in the experiment on HL-60(TB) leukemia, with HCT-15 colon, with T-47D breast, with NCI/ADR-RES ovarian, with UO-31 renal and in the experiment on NCI-H522 lung was greater than 100 µM in each case. The TGI in the experiment with LOX IMVI melanoma, in the experiment on MCF7 breast and with A498 renal was greater than 100 µM throughout.

With `CCCCOCCOC1=C(Cl)C(=O)c2c(O)ccc(O)c2C1=O`, the TGI turned out to be 1.23 µM with SK-MEL-28 melanoma; 0.331 µM in the experiment with HCT-15 colon; 4.07 µM in the experiment on T-47D breast; 9.14 µM in the experiment with NCI/ADR-RES ovarian; 1.72 µM in the experiment on UO-31 renal; 1.33 µM in the experiment on NCI-H522 lung. The TGI in the experiment with LOX IMVI melanoma was determined as 0.946 µM; with MCF7 breast, 2.04 µM; in the experiment with A498 renal, 4.33 µM.

For the compound `COC(=O)c1ccccc1CC1Cc2cccc(C)c2C1=O` (stereo not drawn), the TGI is 94.5 µM in the experiment on SK-MEL-28 melanoma; 73.3 µM in the experiment on HCT-15 colon; 82.7 µM with T-47D breast; greater than 100 µM in the experiment with NCI/ADR-RES ovarian; 67.2 µM in the experiment with UO-31 renal; 57.2 µM in the experiment on NCI-H522 lung. For the same compound, the TGI in the experiment with LOX IMVI melanoma was 39.6 µM; with MCF7 breast, 56.1 µM.

Regarding `CCOc1c(OC)cc(-c2nc3n(n2)C(=O)C(CC)S3)cc1OC` (stereo not drawn), the TGI in the experiment with HL-60(TB) leukemia, with SK-MEL-28 melanoma, in the experiment on HCT-15 colon, in the experiment on T-47D breast, in the experiment with NCI/ADR-RES ovarian and with NCI-H522 lung was greater than 10 µM throughout. Besides, the TGI in the experiment on LOX IMVI melanoma, in the experiment on MCF7 breast and in the experiment with A498 renal was greater than 10 µM each time.
